Experimental data taken from PubChem BioAssay AID248 (DTP/NCI, 2004).
Values joined by “and” are separate entries in the source; they are usually repeats but may differ in a detail not shown here. Identical values can stand only once. Toxic doses and inconclusive results are not listed.

Tested on: L1210 leukemia ip in BDF1 mice, survival T/C
Test: NCI In Vivo Anticancer Drug Screen. Data for tumor model L1210 Leukemia (intraperitoneal) in B6D2F1 (BDF1) mice
Conditions: endpoint: mean survival time, higher = longer survival
Procedure, shortened: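 Survival endpoint. Drug-treated group vs vehicle group, expressed as T divided by C. Tumor passaged by transplantation.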

[1] = dose: 100.0 mg/kg/injection, schedule: Q04DX002 (ip), vehicle: Klucel (hydroxypropylcellulose) (HPC)
[2] = dose: 200.0 mg/kg/injection, schedule: Q04DX002 (ip), vehicle: Klucel (hydroxypropylcellulose) (HPC)
[3] = dose: 400.0 mg/kg/injection, schedule: Q04DX002 (ip), vehicle: Klucel (hydroxypropylcellulose) (HPC)
[4] = dose: 100.0 mg/kg/injection, schedule: Q01DX001 (ip), vehicle: saline
[5] = dose: 200.0 mg/kg/injection, schedule: Q01DX001 (ip), vehicle: saline
[6] = dose: 400.0 mg/kg/injection, schedule: Q01DX001 (ip), vehicle: saline
[7] = dose: 100.0 mg/kg/injection, schedule: Q04DX003 (ip), vehicle: saline
[8] = dose: 200.0 mg/kg/injection, schedule: Q04DX003 (ip), vehicle: saline
[9] = dose: 400.0 mg/kg/injection, schedule: Q04DX003 (ip), vehicle: saline
[10] = dose: 100.0 mg/kg/injection, schedule: Q01DX009 (ip), vehicle: Klucel (hydroxypropylcellulose) (HPC)
[11] = dose: 200.0 mg/kg/injection, schedule: Q01DX009 (ip), vehicle: Klucel (hydroxypropylcellulose) (HPC)
[12] = dose: 400.0 mg/kg/injection, schedule: Q01DX009 (ip), vehicle: Klucel (hydroxypropylcellulose) (HPC)
[13] = dose: 100.0 mg/kg/injection, schedule: Q01DX001 (ip), vehicle: carboxymethylcellulose (CMC)
[14] = dose: 200.0 mg/kg/injection, schedule: Q01DX001 (ip), vehicle: carboxymethylcellulose (CMC)
[15] = dose: 400.0 mg/kg/injection, schedule: Q01DX001 (ip), vehicle: carboxymethylcellulose (CMC)
[16] = dose: 100.0 mg/kg/injection, schedule: Q04DX003 (ip), vehicle: Klucel (hydroxypropylcellulose) (HPC)
[17] = dose: 200.0 mg/kg/injection, schedule: Q04DX003 (ip), vehicle: Klucel (hydroxypropylcellulose) (HPC)
[18] = dose: 400.0 mg/kg/injection, schedule: Q04DX003 (ip), vehicle: Klucel (hydroxypropylcellulose) (HPC)
[19] = dose: 100.0 mg/kg/injection, schedule: Q01DX001 (ip), vehicle: saline with Tween-80
[20] = dose: 200.0 mg/kg/injection, schedule: Q01DX001 (ip), vehicle: saline with Tween-80
[21] = dose: 400.0 mg/kg/injection, schedule: Q01DX001 (ip), vehicle: saline with Tween-80
[22] = dose: 100.0 mg/kg/injection, schedule: Q04DX002 (ip), vehicle: saline
[23] = dose: 200.0 mg/kg/injection, schedule: Q04DX002 (ip), vehicle: saline
[24] = dose: 400.0 mg/kg/injection, schedule: Q04DX002 (ip), vehicle: saline
[25] = dose: 100.0 mg/kg/injection, schedule: Q01DX009 (ip), vehicle: saline
[26] = dose: 100.0 mg/kg/injection, schedule: Q01DX001 (ip), vehicle: Klucel (hydroxypropylcellulose) (HPC)
[27] = dose: 400.0 mg/kg/injection, schedule: Q01DX001 (ip), vehicle: Klucel (hydroxypropylcellulose) (HPC)
[28] = dose: 200.0 mg/kg/injection, schedule: Q01DX009 (ip), vehicle: saline
[29] = dose: 400.0 mg/kg/injection, schedule: Q01DX009 (ip), vehicle: saline
[30] = dose: 50.0 mg/kg/injection, schedule: Q01DX009 (ip), vehicle: saline

For `N#Cc1ccc(/C=C\c2ccc(C#N)cc2)cc1`, the T/C (dose: 0.6 mg/kg/injection, schedule: Q04DX002 (ip), vehicle: Klucel (hydroxypropylcellulose) (HPC)) was 104 % of control, the T/C (dose: 1.2 mg/kg/injection, schedule: Q04DX002 (ip), vehicle: Klucel (hydroxypropylcellulose) (HPC)) was 104 % of control and the T/C (dose: 2.5 mg/kg/injection, schedule: Q04DX002 (ip), vehicle: Klucel (hydroxypropylcellulose) (HPC)) was 97 % of control. For the same compound, the T/C (dose: 50.0 mg/kg/injection, schedule: Q04DX002 (ip), vehicle: Klucel (hydroxypropylcellulose) (HPC)) was 104 % of control, the T/C [1] was 104 % of control and 122 % of control and the T/C [2] was 109 % of control and 110 % of control. The T/C [3] was 98 % of control.
In the case of `CCCCC(=O)N/N=C/c1cccc(Br)c1`, the T/C [4] is reported as 102 % of control, the T/C [5] is reported as 102 % of control and the T/C [6] is reported as 98 % of control.
`Cn1cc(C(N)=O)ccc1=N` was tested, and the T/C [7] was 113 % of control, the T/C [8] was 98 % of control and the T/C [9] was 106 % of control.
For `NC1NC(=O)C(CCCOc2ccc([N+](=O)[O-])cc2)C(c2ccccc2)N1` (configuration not stated), the T/C [10] was 91 % of control, the T/C [11] was 110 % of control and the T/C [12] was 89 % of control.
For `NOC(=O)c1cccc(Cl)c1`, the T/C (dose: 100.0 mg/kg/injection, schedule: Q04DX002 (ip), vehicle: saline with Tween-80) was 94 % of control, the T/C (dose: 200.0 mg/kg/injection, schedule: Q04DX002 (ip), vehicle: saline with Tween-80) was 105 % of control and the T/C (dose: 400.0 mg/kg/injection, schedule: Q04DX002 (ip), vehicle: saline with Tween-80) was 96 % of control.
For `COc1ccc(C(C)=O)cc1CCC=O`, the T/C [13] was 97 % of control, the T/C [14] was 97 % of control and the T/C [15] was 97 % of control.
For `O=C(c1ccncc1)n1cc2c(n1)CCCC2`, the T/C [16] was 87 % of control, the T/C [17] was 92 % of control and the T/C [18] was 95 % of control.
For `CSc1ccccc1/C=C(/C(=O)O)c1ccccc1O`, the T/C [19] was 103 % of control, the T/C [20] was 97 % of control and the T/C [21] was 103 % of control.
With `O=C(CCCCOc1ccc([N+](=O)[O-])cc1Cl)Nc1ccc(S(=O)(=O)F)cc1` the T/C [16] was 97 % of control, the T/C [17] was 90 % of control and the T/C [18] was 90 % of control.
With `C=CCP(C)(=O)CC=C` the T/C [22] was 102 % of control, the T/C [23] was 108 % of control and the T/C [24] was 94 % of control.
With `COc1ccc(S(=O)(=O)F)cc1NC(=O)NCc1ccc([N+](=O)[O-])cc1` the T/C [10] was 103 % of control, the T/C [11] was 110 % of control and the T/C [12] was 108 % of control.
In the case of `O=C1/C(=C/c2ccncc2)CCCc2ccccc21`, the T/C (dose: 6.25 mg/kg/injection, schedule: Q04DX003 (ip), vehicle: Klucel (hydroxypropylcellulose) (HPC)) is reported as 98 % of control, the T/C (dose: 12.5 mg/kg/injection, schedule: Q04DX003 (ip), vehicle: Klucel (hydroxypropylcellulose) (HPC)) is reported as 97 % of control and the T/C (dose: 25.0 mg/kg/injection, schedule: Q04DX003 (ip), vehicle: Klucel (hydroxypropylcellulose) (HPC)) is reported as 97 % of control. For the same compound, the T/C (dose: 200.0 mg/kg/injection, schedule: Q04DX003 (ip), vehicle: carboxymethylcellulose (CMC)) was 100 % of control.
In the case of `O=S(=O)(O)C(Nc1ccccn1)c1ccccc1` (configuration not stated), the T/C [19] is reported as 104 % of control.
`Nc1nc(N)c(N=Nc2ccccc2S(=O)(=O)O)c(N)n1` was tested, and the T/C [4] was 105 % of control, the T/C [5] was 89 % of control and the T/C [6] was 96 % of control.
In the case of `COc1cc2c[n+](C)c3c4cc(OC)c(OC)cc4ccc3c2cc1OC`, the T/C (dose: 9.6 mg/kg/injection, schedule: Q01DX009 (ip), vehicle: saline with Tween-80) is reported as 119 % of control, the T/C (dose: 12.5 mg/kg/injection, schedule: Q01DX009 (ip), vehicle: water) is reported as 111 % of control and the T/C (dose: 14.0 mg/kg/injection, schedule: Q01DX009 (ip), vehicle: saline with Tween-80) is reported as 115 % of control. For the same compound, the T/C (dose: 25.0 mg/kg/injection, schedule: Q01DX009 (ip), vehicle: water) was 110 % of control and 122 % of control, the T/C (dose: 50.0 mg/kg/injection, schedule: Q01DX009 (ip), vehicle: water) was 109 % of control and 114 % of control and the T/C [25] was 123 % of control. The T/C [7] was 100 % of control, the T/C (dose: 100.0 mg/kg/injection, schedule: Q04DX003 (ip), vehicle: water) was 112 % of control and the T/C (dose: 180.0 mg/kg/injection, schedule: Q01DX009 (ip), vehicle: saline) was 109 % of control. For the same compound, the T/C [8] was 104 % of control, the T/C (dose: 200.0 mg/kg/injection, schedule: Q04DX003 (ip), vehicle: water) was 113 % of control and the T/C (dose: 240.0 mg/kg/injection, schedule: Q04DX003 (ip), vehicle: water) was 112 % of control. For the same compound, the T/C [9] was 110 % of control and the T/C (dose: 400.0 mg/kg/injection, schedule: Q04DX003 (ip), vehicle: water) was 107 % of control.
`CCOS(=O)O` was tested, and the T/C [7] was 96 % of control, the T/C [8] was 96 % of control and the T/C [9] was 98 % of control.
In the case of `CSc1cccc(C(=O)O)c1`, the T/C [26] is reported as 102 % of control, the T/C (dose: 200.0 mg/kg/injection, schedule: Q01DX001 (ip), vehicle: Klucel (hydroxypropylcellulose) (HPC)) is reported as 102 % of control and the T/C [27] is reported as 94 % of control.
For `Oc1cc(O)cc(O)c1`, the T/C [25] was 96 % of control, the T/C [22] was 115 % of control and the T/C [28] was 100 % of control. The T/C [23] was 104 % of control, the T/C [29] was 100 % of control and the T/C [24] was 100 % of control.
With `CCC(=O)N(C)c1cccc(O)c1` the T/C [19] was 114 % of control, the T/C [20] was 94 % of control and the T/C [21] was 97 % of control.
`CCCCn1c(=S)sc2ccccc21` was tested, and the T/C [1] was 94 % of control, the T/C [2] was 109 % of control and the T/C [3] was 88 % of control.
With `CC(O)C(O)C(=O)NN` (configuration not stated) the T/C [30] was 91 % of control, the T/C [25] was 98 % of control and the T/C [28] was 98 % of control.
With `O=C(CC(C(=O)c1ccccc1)N1CCN(Cc2ccccc2)CC1)c1ccccc1` (configuration not stated) the T/C (dose: 50.0 mg/kg/injection, schedule: Q01DX001 (ip), vehicle: carboxymethylcellulose (CMC)) was 92 % of control, the T/C [13] was 94 % of control and the T/C [14] was 92 % of control. The T/C [15] was 97 % of control.
With `Cc1ccc(-c2nc(-c3nccc4ccccc34)oc2-c2ccccc2)cc1` the T/C [10] was 103 % of control, the T/C [11] was 95 % of control and the T/C [12] was 95 % of control.
With `Cc1ccc(CO)cc1` the T/C [25] was 97 % of control, the T/C [7] was 106 % of control and the T/C [8] was 114 % of control. The T/C [29] was 92 % of control and the T/C [9] was 106 % of control.
With `O=C(Nc1ccc(C2=NCCN2)cc1)c1ccc(F)c(C(=O)Nc2ccc(C3=NCCN3)cc2)c1` the T/C (dose: 2.25 mg/kg/injection, schedule: Q01DX Z (ip), vehicle: water) was 105 % of control, the T/C (dose: 4.5 mg/kg/injection, schedule: Q01DX Z (ip), vehicle: water) was 107 % of control and the T/C (dose: 9.0 mg/kg/injection, schedule: Q01DX Z (ip), vehicle: water) was 116 % of control. The T/C (dose: 37.5 mg/kg/injection, schedule: Q01DX Z (ip), vehicle: water) was 154 % of control, the T/C (dose: 75.0 mg/kg/injection, schedule: Q01DX Z (ip), vehicle: water) was 189 % of control and the T/C (dose: 150.0 mg/kg/injection, schedule: Q01DX Z (ip), vehicle: water) was 241 % of control. The T/C (dose: 300.0 mg/kg/injection, schedule: Q01DX Z (ip), vehicle: water) was 229 % of control.
`N#Cc1nc2c(nc1N)CCCCCCCCCC2` was tested, and the T/C [26] was 96 % of control and the T/C [27] was 92 % of control.
For `CCOC(=O)CNC(=O)C(O)C(O)C(O)C(O)CO` (configuration not stated), the T/C [7] was 102 % of control, the T/C [8] was 97 % of control and the T/C [9] was 91 % of control.
In the case of `CCCCCCCCCCCCCCCC[N+]1(C)CCN(SN2CC[N+](C)(CCCCCCCCCCCCCCCC)CC2)CC1`, the T/C (dose: 25.0 mg/kg/injection, schedule: Q01DX009 (ip), vehicle: saline) is reported as 98 % of control, the T/C [30] is reported as 105 % of control and the T/C [7] is reported as 86 % of control.
